Data on 15 molecules can be found in PubChem BioAssay (NCI).

Some test systems named below: HT29 colon; HCC-2998 colon; SF-295 CNS; SN12C renal; HOP-62 NSCLC; SW-620 colon; CAKI-1 renal; NCI-H522 lung; CCRF-CEM leukemia.
What all share (assay): growth of human tumour cells (NCI), 48 h

Molecules are shown by their SMILES.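 Protocol summary: plate cells (96-well), add compound at 5 concentrations, incubate 48 h, interpolate endpoints linearly. GI50 = concentration required for 50% inhibition of growth. TGI is the concentration that stops growth completely.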

For `C/C=C/C(C#N)O[Si](C)(C)C` (centres undefined), the TGI in the assay on HT29 colon, in the assay on HCC-2998 colon, with SF-295 CNS, with SN12C renal, with HOP-62 NSCLC and with SW-620 colon was above 100 µM in each case. Moreover, the TGI with CAKI-1 renal and in the assay with NCI-H522 lung was above 100 µM each time.

As to `Cc1nc(C(N)=O)c(N)n1CCN1CCN(C(=O)CCCCCCCCCCNC2N=CNc3nc[nH]c32)CC1` (centres undefined), the TGI is above 100 µM with HT29 colon; above 100 µM in the assay on HCC-2998 colon; above 100 µM with SF-295 CNS; above 100 µM with SN12C renal; 81.9 µM in the assay with CCRF-CEM leukemia; above 100 µM with HOP-62 NSCLC. For the same molecule, the TGI in the assay on SW-620 colon was above 100 µM.

As to `COc1cc(Cl)cc(=O)c(O)c1OC`, the TGI with HT29 colon, in the assay on HCC-2998 colon, in the assay on SF-295 CNS, in the assay on SN12C renal, in the assay with CCRF-CEM leukemia and in the assay on HOP-62 NSCLC was above 100 µM in each case. Moreover, in the assay with NCI-H522 lung, the TGI is above 64.3 µM.

Turning to `O=c1ncccn1[C@@H]1O[C@H](CO)[C@H](O)C1O` (some centres undefined), the TGI in the assay with HT29 colon, with HCC-2998 colon, in the assay on SF-295 CNS, in the assay on SN12C renal, with CCRF-CEM leukemia and in the assay with HOP-62 NSCLC was above 100 µM in each case. Further, the TGI in the assay on SW-620 colon, in the assay on CAKI-1 renal and in the assay with NCI-H522 lung was above 100 µM in each case.

In the case of `CCc1cccc(C)c1NS(=O)(=O)c1ccccc1`, the TGI in the assay on HT29 colon, in the assay with HCC-2998 colon, in the assay on SF-295 CNS, in the assay on CCRF-CEM leukemia, with HOP-62 NSCLC and with SW-620 colon was above 100 µM throughout. The molecule also displayed a TGI with CAKI-1 renal above 100 µM.

For `c1cc[c]([Sn][c]2ccccc2)cc1`, the GI50 was 20.2 µM with HT29 colon; 13.8 µM with HCC-2998 colon; 27.8 µM in the assay with SF-295 CNS; 20 µM in the assay with SN12C renal; 21.9 µM in the assay with CCRF-CEM leukemia; 53.1 µM in the assay on HOP-62 NSCLC. The GI50 was 21.6 µM with SW-620 colon, 24 µM in the assay with CAKI-1 renal and 14.1 µM with NCI-H522 lung. Also, the TGI is 37 µM with HT29 colon; 18.3 µM with HCC-2998 colon; 69.7 µM in the assay with SF-295 CNS; 42.1 µM in the assay with SN12C renal; 62.7 µM in the assay with CCRF-CEM leukemia; above 100 µM in the assay with HOP-62 NSCLC. Besides, the TGI with SW-620 colon is 45 µM; in the assay on CAKI-1 renal it was above 92.3 µM; in the assay on NCI-H522 lung it was 32.7 µM.

On to `CCOC(=O)NC(=O)c1cn(CCN2CCN(C(=O)NCCCCCCNC(=O)N3CCN(CCn4cc(C(=O)NC(=O)OCC)c(=O)[nH]c4=O)CC3)CC2)c(=O)[nH]c1=O`, for which the TGI in the assay on HT29 colon, in the assay with HCC-2998 colon, in the assay with SF-295 CNS, with SN12C renal, in the assay on HOP-62 NSCLC and in the assay on SW-620 colon was above 100 µM each time. The molecule also gave a TGI in the assay with NCI-H522 lung above 100 µM.

For the molecule `O=C(/C=C/c1ccccc1)Oc1cccc2cccnc12`, the TGI in the assay with HT29 colon was 29.3 µM; in the assay with HCC-2998 colon, above 100 µM; in the assay with SF-295 CNS, above 100 µM; in the assay on SN12C renal, above 58.6 µM; in the assay on CCRF-CEM leukemia it was above 29.3 µM; with HOP-62 NSCLC, above 100 µM. In addition, the TGI in the assay on SW-620 colon came out at 21.9 µM; with CAKI-1 renal, 83.2 µM; with NCI-H522 lung, 5.31 µM.

Regarding `C=C(c1ccccc1)C1(O)CCCCC1N` (centres undefined), the TGI in the assay with HT29 colon is above 100 µM; in the assay with HCC-2998 colon, above 100 µM; in the assay with SF-295 CNS it was above 100 µM; in the assay on SN12C renal it was above 100 µM; in the assay with CCRF-CEM leukemia, 95.3 µM; with HOP-62 NSCLC it was above 100 µM. The TGI in the assay on SW-620 colon, in the assay with CAKI-1 renal and in the assay with NCI-H522 lung was above 100 µM throughout.

In the case of `O=C(N/N=C/c1ccccc1O)N/N=C/c1ccccc1O`, the TGI in the assay on HT29 colon, in the assay with HCC-2998 colon, in the assay on SF-295 CNS, with SN12C renal, in the assay on CCRF-CEM leukemia and with HOP-62 NSCLC was above 100 µM each time. For the same molecule, the TGI with SW-620 colon and in the assay with NCI-H522 lung was above 100 µM in each case.

With `COC(=O)c1sc(C(=O)OC)c2c1CS(=O)C2`, the TGI in the assay on HT29 colon, with HCC-2998 colon, in the assay on SF-295 CNS, with CCRF-CEM leukemia, in the assay with SW-620 colon and with CAKI-1 renal was above 100 µM each time. Moreover, the TGI in the assay on NCI-H522 lung is above 100 µM.

For `CCc1c(C#N)c(=O)[nH]c(=O)n1CCN1CCN(C(=O)NCCCCCCNC(=O)N2CCN(CCn3c(CC)c(C#N)c(=O)[nH]c3=O)CC2)CC1`, the TGI in the assay with HT29 colon, in the assay with HCC-2998 colon, with SF-295 CNS, with SN12C renal, in the assay with CCRF-CEM leukemia and in the assay with HOP-62 NSCLC was above 100 µM throughout. Besides, the TGI in the assay on SW-620 colon and with CAKI-1 renal was above 100 µM in each case.

Turning to `N#CC(N)=Nc1ccccc1`, the TGI in the assay with HT29 colon, in the assay with HCC-2998 colon, with SF-295 CNS, with SN12C renal, with CCRF-CEM leukemia and in the assay with HOP-62 NSCLC was above 100 µM in each case. For the same molecule, the TGI in the assay on SW-620 colon, in the assay on CAKI-1 renal and in the assay with NCI-H522 lung was above 100 µM each time.

With `IC[P+]1(c2ccccc2)CCCC1`, the TGI was above 100 µM with HT29 colon; above 100 µM in the assay on HCC-2998 colon; above 100 µM with SF-295 CNS; 60.8 µM with SN12C renal; above 100 µM in the assay with CCRF-CEM leukemia; above 100 µM in the assay with HOP-62 NSCLC. Moreover, the TGI in the assay on SW-620 colon is above 100 µM; with NCI-H522 lung, 21.6 µM.

On to `CN1N=CSC12C(=O)N(c1ccccc1)C(=O)N2c1ccccc1` (centres undefined), for which the TGI in the assay on HT29 colon, with HCC-2998 colon, in the assay with SF-295 CNS, in the assay with SN12C renal, with CCRF-CEM leukemia and in the assay with HOP-62 NSCLC was above 100 µM each time. The TGI with SW-620 colon and in the assay with CAKI-1 renal was above 100 µM each time.
